Data published in PMC4414331 (The Prostate, 2012).
pIC50: −log10 of the molar value.

Biological target: prostate-specific membrane antigen (PSMA) (Homo sapiens, UniProt Q04609)
Test: purified PSMA, PABGgG hydrolysis by HPLC
Format: biochemical

prostate-specific membrane antigen (PSMA), sequence (Q04609 whole entry): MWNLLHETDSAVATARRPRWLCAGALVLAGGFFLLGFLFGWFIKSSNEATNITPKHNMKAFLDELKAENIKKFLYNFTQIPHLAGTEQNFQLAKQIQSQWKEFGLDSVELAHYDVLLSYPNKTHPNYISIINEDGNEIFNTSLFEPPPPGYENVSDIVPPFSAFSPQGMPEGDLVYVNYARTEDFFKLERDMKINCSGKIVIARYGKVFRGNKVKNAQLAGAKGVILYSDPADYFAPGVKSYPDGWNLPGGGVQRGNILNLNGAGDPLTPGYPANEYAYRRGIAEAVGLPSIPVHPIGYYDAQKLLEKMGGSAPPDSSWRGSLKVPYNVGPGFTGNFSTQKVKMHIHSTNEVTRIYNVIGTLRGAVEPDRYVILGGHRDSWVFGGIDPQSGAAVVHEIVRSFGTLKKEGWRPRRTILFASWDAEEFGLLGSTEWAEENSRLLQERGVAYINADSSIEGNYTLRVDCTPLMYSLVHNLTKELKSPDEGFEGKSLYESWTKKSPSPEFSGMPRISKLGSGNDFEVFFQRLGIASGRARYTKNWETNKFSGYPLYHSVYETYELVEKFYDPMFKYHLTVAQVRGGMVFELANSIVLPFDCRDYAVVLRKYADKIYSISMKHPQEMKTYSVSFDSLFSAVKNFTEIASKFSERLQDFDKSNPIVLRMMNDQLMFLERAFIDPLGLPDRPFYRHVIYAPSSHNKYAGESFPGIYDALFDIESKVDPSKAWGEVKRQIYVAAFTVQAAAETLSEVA

Substance | pIC50
DBCO-PEG4-CTT-54.2 [compound 6] | 8.18
DBCO-PEG4-CTT-54 [compound 5] | 9.00
